≈ marks a conversion by molar mass, not a printed value. Where two headings read alike, the source gives them in different places.
Columns and labels:
Type in all cases: cell-based
[1] = system: A549 (human non-small lung cell); experiment: SRB assay, in vitro antitumor effect against A549; details: Homo sapiens
Description: (§1) In vitro antitumor effect against human tumor cell lines.
(§2) b. 5×10^3 ~2×10^4 cells were added into each well of 96-well plate and cultured in 5% CO2 incubator, at 37° C., for 24 hours.
(§3) c. Each sample drug was dissolved in a little DMSO and diluted with the used medium to a prescribed concentration for experiments, wherein the final concentration of DMSO was controlled below 0.5%.
(§4) d. Medium of each well cultured for 24 hours as above b. was removed by aspiration. Each 200 μl of drug samples prepared in c. was added into each well and the wells were cultured for 48 hours. Tz(time zero) plates were collected at the point of time drugs were added.
(§5) e. According to the SRB assay method, cell fixing with TCA, staining with 0.4% SRB solution, washing with 1% acetic acid and elution of dye with 10 mM Tris solution were carried out on Tz plates and culture-ended plates, and then, OD values were measured at 520 nm.
(§6) a. Time zero(Tz) value was determined with measuring the SRB protein value at the point of time drugs were added.
(§7) b. Control value(C) was determined with the OD value of an well untreated with drug.
(§8) c. Drug-treated test value(T) was determined with the OD value of drug-treated well.
(§9) d. Effects of drugs were estimated with growth stimulation, net growth inhibition, net killing etc. calculated from Tz, C and T.
(§10) e. If T≥Tz, cellular response function was calculated by 100×(T-Tz)/(C-Tz), and if T<Tz, by 100×(T-Tz)/Tz.

SKOV-3 (human ovarian) = experiment: SRB assay, in vitro antitumor effect against SKOV-3; details: Homo sapiens; SK-OV-3, 48 hours; read-out: ED50 (the source's name)
Description: as §1, §2, §3, §4, §5, §6, §7, §8, §9, §10

SKMEL-2 (human melanoma) = experiment: SRB assay, in vitro antitumor effect against SKMEL-2; details: Homo sapiens; SK-MEL-2, 48 hours; read-out: ED50 (the source's name)
Description: as §1, §2, §3, §4, §5, §6, §7, §8, §9, §10

XF 498 (human CNS) = experiment: SRB assay, in vitro antitumor effect against XF 498; details: Homo sapiens, XF498; XF-498, 48 hours; read-out: ED50 (the source's name)
Description: as §1, §2, §3, §4, §5, §6, §7, §8, §9, §10

HCT-15 (human colon) = experiment: SRB assay, in vitro antitumor effect against HCT-15; details: Homo sapiens
Description: as §1, §2, §3, §4, §5, §6, §7, §8, §9, §10

[2] = A549, 48 hours, read-out: ED50 (the source's name)
[3] = HCT 15, 48 hours, read-out: ED50 (the source's name)

SMILES | IC50 [1, 2] | IC50 (SKOV-3 (human ovarian)) | IC50 (SKMEL-2 (human melanoma)) | IC50 (XF 498 (human CNS)) | IC50 (HCT-15 (human colon); [3]) | IC50 ([1]; A549, 48 h, read-out: ED50) | IC50 (HCT-15 (human colon); HCT-15, 48 h, read-out: ED50)
COc1cc(OC)cc(N2CCN(C(=S)Nc3cc(C(C)=O)c(C)nc3OC)CC2)c1 [Example 53, 1-[(5-Acetyl-2-methoxy-6-methylpyridin-3-yl)aminothiocarbonyl]-4-(3,5-dimethoxyphenyl)piperazine] | 0.47 µg/mL (≈ 1.06 µM) | 0.47 µg/mL (≈ 1.06 µM) | 0.64 µg/mL (≈ 1.44 µM) | 0.67 µg/mL (≈ 1.51 µM) | 0.71 µg/mL (≈ 1.6 µM) |  | 
COc1cc(OC)cc(N2CCN(C(=S)Nc3cc(C(C)O)c(C)nc3OC)CC2)c1 (centres unmarked) [Example 63, 1-{[5-(1-Hydroxyethyl)-2-methoxy-6-methylpyridin-3-yl]aminothiocarbonyl}-4-(3,5-dimethoxyphenyl)piperazine] | 0.04 µg/mL (≈ 0.0896 µM) | 0.1 µg/mL (≈ 0.224 µM) | 0.11 µg/mL (≈ 0.246 µM) | 0.03 µg/mL (≈ 0.0672 µM) | 0.07 µg/mL (≈ 0.157 µM) |  | 
COc1nc2ccccc2cc1NC(=O)N1CCN(c2cccc(Cl)c2)CC1 [Example 88, 1-[(2-Methoxyquinolin-3-yl)aminocarbonyl]-4-(3-chlorophenyl)piperazine] |  | 0.043 µg/mL (≈ 0.108 µM) | 0.02 µg/mL (≈ 0.0504 µM) | 0.009 µg/mL (≈ 0.0227 µM) |  | 0.014 µg/mL (≈ 0.0353 µM) | 0.011 µg/mL (≈ 0.0277 µM)
CCN(C(=O)N1CCN(c2cc(OC)cc(OC)c2)CC1)c1cc2ccccc2nc1OC [Example 99, 1-[N-Ethyl-N-(2-methoxyquinolin-3-yl)aminocarbonyl]-4-(3,5-dimethoxyphenyl)piperazine] | 0.43 µg/mL (≈ 0.954 µM) | 0.41 µg/mL (≈ 0.91 µM) | 0.4 µg/mL (≈ 0.888 µM) | 0.52 µg/mL (≈ 1.15 µM) | 0.36 µg/mL (≈ 0.799 µM) |  | 
COc1cc(OC)cc(N2CCN(C(=O)N(c3cc4ccccc4nc3OC)C(C)C)CC2)c1 [Example 100] | 4.54 µg/mL (≈ 9.77 µM) | 3.02 µg/mL (≈ 6.5 µM) | 3.47 µg/mL (≈ 7.47 µM) | 0.66 µg/mL (≈ 1.42 µM) | 4.21 µg/mL (≈ 9.06 µM) |  | 
COc1nc2ccccc2cc1N(C)C(=O)N1CCN(c2cc(C)cc(C)c2)CC1 [Example 103, 1-[N-(2-Methoxyquinolin-3-yl)-N-methylaminocarbonyl]-4-(3,5-dimethylphenyl)piperazine] | 0.52 µg/mL (≈ 1.29 µM) | 0.46 µg/mL (≈ 1.14 µM) | 0.49 µg/mL (≈ 1.21 µM) | 0.36 µg/mL (≈ 0.89 µM) | 0.33 µg/mL (≈ 0.816 µM) |  | 
COc1cc(OC)cc(N2CCN(C(=S)Nc3cc4ccccc4nc3OC)CC2)c1 [Example 109, 1-[(2-Methoxyquinolin-3-yl)aminothiocarbonyl]-4-(3,5-dimethoxyphenyl)piperazine] | 0.47 µg/mL (≈ 1.07 µM) | 0.91 µg/mL (≈ 2.08 µM) | 0.86 µg/mL (≈ 1.96 µM) | 0.53 µg/mL (≈ 1.21 µM) | 0.49 µg/mL (≈ 1.12 µM) |  | 
COc1nc2ccccc2cc1NC(=S)N1CCN(c2cc(C)cc(C)c2)CC1 [Example 110, 1[(2-Methoxyquinolin-3-yl)aminothiocarbonyl]-4-(3,5-dimethylphenyl)piperazine] | 0.52 µg/mL (≈ 1.28 µM) | 1.06 µg/mL (≈ 2.61 µM) | 0.97 µg/mL (≈ 2.39 µM) | 0.81 µg/mL (≈ 1.99 µM) | 0.69 µg/mL (≈ 1.7 µM) |  | 

Now from value to compound, other results behind:

IC50 [1, 2] | IC50 (SKOV-3 (human ovarian)) | IC50 (SKMEL-2 (human melanoma)) | IC50 (XF 498 (human CNS)) | IC50 (HCT-15 (human colon); [3]) | SMILES | IC50 ([1]; A549, 48 h, read-out: ED50) | IC50 (HCT-15 (human colon); HCT-15, 48 h, read-out: ED50)
0.21 µg/mL (≈ 0.49 µM) | 0.12 µg/mL (≈ 0.28 µM) | 0.08 µg/mL (≈ 0.187 µM) | 0.14 µg/mL (≈ 0.327 µM) | 0.16 µg/mL (≈ 0.373 µM) | COc1cc(OC)cc(N2CCN(C(=O)Nc3cc(C(C)=O)c(C)nc3OC)CC2)c1 [Example 46, 1-[(5-Acetyl-2-methoxy-6-methylpyridin-3-yl)amninocarbonyl]-4-(3,5-dimethoxyphenyl)piperazine] |  | 
0.92 µg/mL (≈ 2.32 µM) | 0.62 µg/mL (≈ 1.56 µM) | 0.47 µg/mL (≈ 1.19 µM) | 0.64 µg/mL (≈ 1.61 µM) | 0.81 µg/mL (≈ 2.04 µM) | COc1nc(C)c(C(C)=O)cc1NC(=O)N1CCN(c2cc(C)cc(C)c2)CC1 [Example 47, 1-[(5-Acetyl-2-methoxy-6-methylpyridin-3-yl)aminocarbonyl]-4-(3,5-dimethylphenyl)piperazine] |  | 
0.42 µg/mL (≈ 1.01 µM) | 0.56 µg/mL (≈ 1.35 µM) | 0.52 µg/mL (≈ 1.25 µM) | 0.23 µg/mL (≈ 0.555 µM) | 0.37 µg/mL (≈ 0.892 µM) | COc1nc(C)c(C(C)O)cc1NC(=S)N1CCN(c2cc(C)cc(C)c2)CC1 (centres unmarked) [Example 64, 1-{[5-(1-Hydroxyethyl)-2-methoxy-6-methylpyridin-3-yl]aminothiocarbonyl}-4-(3,5-dimethylphenyl)piperazine] |  | 
0.19 µg/mL (≈ 0.489 µM) | 0.09 µg/mL (≈ 0.232 µM) | 0.09 µg/mL (≈ 0.232 µM) | 0.13 µg/mL (≈ 0.335 µM) | 0.12 µg/mL (≈ 0.309 µM) | C=Cc1cc(NC(=O)N2CCN(c3cc(F)cc(F)c3)CC2)c(OC)nc1C [Example 75, 1-[(2-Methoxy-6-methyl-5-vinylpyridin-3-yl)aminocarbonyl]-4-(3,5-difluorophenyl)piperazine] |  | 
0.048 µg/mL (≈ 0.111 µM) | 0.117 µg/mL (≈ 0.271 µM) | 0.039 µg/mL (≈ 0.0904 µM) | 0.104 µg/mL (≈ 0.241 µM) | 0.1 µg/mL (≈ 0.232 µM) | COc1nc2ccccc2cc1NC(=O)N1CCN(c2cc(Cl)cc(Cl)c2)CC1 [Example 85, 1-[(2-Methoxyquinolin-3-yl)aminocarbonyl]-4-(3,5-dichlorolphenyl)piperazine] |  | 
